In patent US20250057751A1, “PEPTIDE HAVING ACTIVITY OF IMPROVING STATE OF SKIN, AND USE THEREOF” (CAREGEN CO., LTD., priority 2021, published 2025):

Legend:
HaCaT cells [1] = experiment: Inhibitory effect on apoptosis of skin cells induced by ultraviolet rays (survival rate, SRB); type: cell-based, human; conditions: 15m J/cm2 ultraviolet rays, 50 μM or 100 μM peptide, 72 hours, FIG. 6B
Method: (§1) In this example, the aim was to confirm the effect of the peptide according to an example on the inhibition of apoptosis or cell recovery of skin cells induced by ultraviolet rays, by evaluating the change in survival rate of skin cells whose apoptosis was induced by ultraviolet irradiation.
(§2) Specifically, NIH3T3 cells or HaCaT cells were seeded in a 96-well plate at a density of 1×10^4 cells/well and cultured for 24 hours. The cells were then washed once with serum-free DMEM media, the culture medium was replaced with serum-free DMEM media, and 50 μM or 100 μM of the peptide consisting of the amino acid sequence of SEQ ID NO: 1 was dispensed to the culture medium. The culture medium dispensed with the peptide was cultured in a CO2 incubator at 37° C. for 1 hour, transferred to an e-tube, mixed with 100 ul of PBS, and dispensed into a well plate. Afterwards, using a UV irradiator (VILBER LOURMAT, France), 6 J/cm2 ultraviolet rays were irradiated to NIH3T3 cells, and 15m J/cm2 ultraviolet rays were irradiated to HaCaT cells. The PBS in the well plate was then removed, 900 μL of the culture medium in which the peptides were dispensed was added, and the plate was cultured in a CO2 incubator at 37° C. for 72 hours. […] The dried culture was then dissolved in 20 mM Tris buffer solution and the absorbance at 560 nm was measured using a microplate reader (Molecular Devices, USA). […]

collagen type 1 (Col1a1) = experiment: Expression of extracellular matrix constituent factor in NIH3T3 cells (RT-PCR); type: cell-based, mouse; conditions: 50 μM or 100 μM peptide, 24 hours, FIG. 2, FIG. 3A
Method: (§3) In this example, the aim was to confirm the effect of the peptide according to an example on improving endogenous skin aging, including improvement of wrinkles and enhancement of elasticity, etc., by evaluating the expression levels of collagen type 1 (Col1a1), fibronectin, or elastin, which are known components of the dermis.
(§4) Specifically, NIH3T3 cells were seeded in a 6-well plate at a density of 3×10^5 cells/well and cultured for 24 hours. The cells were then washed once with serum-free DMEM media, and the culture medium was replaced with serum-free DMEM media. Thereafter, 50 μM or 100 μM of the peptide consisting of the amino acid sequence of SEQ ID NO: 1 was dispensed into the medium, and cultured in a CO2 incubator at 37° C. for 24 hours. The culture was then washed twice with PBS, and RNA was isolated from the culture using easy blue (iNtRON, Korea). Using an RT kit (Enzynomics, Korea), 1 μg of the isolated RNA was reverse transcribed to synthesize the respective cDNA. Polymerase chain reaction (PCR) was then performed using the cDNAs and primers Col1a1, fibronectin, and elastin. Meanwhile, the untreated group was used as the control group, and the group to which TGF-β1 was added (TGF-β1) was used as the positive control group, the nucleotide sequences of the primers used in this example are shown in Table 2 below.

fibronectin = experiment: as above; type: cell-based, mouse; conditions: 50 μM or 100 μM peptide, 24 hours, FIG. 2, FIG. 3B
Method: as §3, §4

elastin = experiment: as above; type: cell-based, mouse; conditions: 50 μM or 100 μM peptide, 24 hours, FIG. 2, FIG. 3C
Method: as §3, §4

NIH3T3 cells [2] = experiment: Proliferation promoting effect on skin cells (SRB staining, absorbance at 560 nm); type: cell-based, mouse; conditions: 50 μM or 100 μM peptide, 72 hours, serum-free DMEM, FIG. 1A
Method: (§5) In this example, the aim was to confirm the effect of a peptide according to an example on proliferation of skin cells, by evaluating changes in survival rate of NIH3T3 cells, which are mouse fibroblasts, or HaCaT cells, which are human keratinocytes.
(§6) Specifically, NIH3T3 cells or HaCaT cells were seeded in a 96-well plate at a density of 5×10^3 cells/well and cultured for 24 hours. The cells were then washed once with serum-free DMEM media, and the culture medium was replaced with serum-free DMEM media. Then, 50 μM or 100 μM of the peptide consisting of the amino acid sequence of SEQ ID NO: 1 was dispensed into the medium, and cultured in a CO2 incubator at 37° C. for 72 hours. The culture was then washed twice with PBS and treated with 4% paraformaldehyde (PFA) solution for 15 minutes to fix the cultured cells. The culture was then washed twice with distilled water, treated with SRB solution for 1 hour to stain the cells, washed with 1% acetic acid solution, and dried. The dried culture was then dissolved in 20 mM Tris buffer solution and the absorbance at 560 nm was measured using a microplate reader (Molecular Devices, USA). In this example, the untreated group was used as the control group, and the group to which insulin-like growth factor was added (IGF) was used as the positive control group.

NIH3T3 cells [3] = experiment: Antioxidant effect on skin cells induced by ultraviolet rays (reactive oxygen species, flow cytometry); type: cell-based, mouse; conditions: 6 J/cm2 ultraviolet rays, 50 μM or 100 μM peptide, 24 hours, FIG. 7A
Method: (§7) In this example, the aim was to confirm the effect of the peptide according to an embodiment on the antioxidant effect of skin cells induced by ultraviolet rays, by evaluating the level of reactive oxygen species in skin cells increased by ultraviolet irradiation.
as §2, with “6-well” for “96-well”, “5×10^5” for “1×10^4”, “24” for “72”, “After washing” for “The dried culture was then dissolved in 20 mM Tris buffer solution and”, “centrifuged cells with PBS, FL1 fluorescence values were” for “absorbance at 560 nm was”, “through flow cytometry (FACS, BD,” for “using a microplate reader (Molecular Devices,”

sirtuin-1 (SIRT-1) = experiment: Expression of skin barrier factor in HaCaT cells (RT-PCR); type: cell-based, human; conditions: 50 μM or 100 μM peptide, 24 hours, FIG. 4, FIG. 5A
Method: (§8) In this example, the aim was to confirm the effect of the peptides according to an example on skin barrier defense, by evaluating the expression levels of sirtuin-1 (SIRT-1) or aquaporin-3 (AQP3).
(§9) Specifically, HaCaT cells were seeded in a 6-well plate at a density of 3×10^5 cells/well and cultured for 24 hours. The cells were then washed once with serum-free DMEM media, and the culture medium was replaced with serum-free DMEM media. Thereafter, 50 μM or 100 μM of the peptide consisting of the amino acid sequence of SEQ ID NO: 1 was dispensed into the medium, and cultured in a CO2 incubator at 37° C. for 24 hours. The culture was then washed twice with PBS, and RNA was isolated from the culture using easy blue (iNtRON, Korea). Using the RT kit (Enzynomics, Korea), 1 ug of the isolated RNA was reverse transcribed to synthesize the respective cDNA. Polymerase chain reaction was then performed using the cDNAs and primers sirtuin-1and aquaporin-3. Meanwhile, the untreated group was used as the control group, and the group to which EGF was added (EGF) was used as the positive control group, the nucleotide sequences of the primers used in this example are shown in Table 3 below.

aquaporin-3 (AQP3) = experiment: as above; type: cell-based, human; conditions: 50 μM or 100 μM peptide, 24 hours, FIG. 4, FIG. 5B
Method: as §8, §9

NIH3T3 cells [4] = experiment: Inhibitory effect on apoptosis of skin cells induced by ultraviolet rays (survival rate, SRB); type: cell-based, mouse; conditions: 6 J/cm2 ultraviolet rays, 50 μM or 100 μM peptide, 72 hours, FIG. 6A
Method: as §1, §2

HaCaT cells [5] = experiment: Proliferation promoting effect on skin cells (SRB staining, absorbance at 560 nm); type: cell-based, human; conditions: 50 μM or 100 μM peptide, 72 hours, serum-free DMEM, FIG. 1B
Method: as §5, §6

HaCaT cells [6] = experiment: Antioxidant effect on skin cells induced by ultraviolet rays (reactive oxygen species, flow cytometry); type: cell-based, human; conditions: 15m J/cm2 ultraviolet rays, 50 μM or 100 μM peptide, 24 hours, FIG. 7B
Method: as §7
as §2, with “6-well” for “96-well”, “5×10^5” for “1×10^4”, “24” for “72”, “After washing” for “The dried culture was then dissolved in 20 mM Tris buffer solution and”, “centrifuged cells with PBS, FL1 fluorescence values were” for “absorbance at 560 nm was”, “through flow cytometry (FACS, BD,” for “using a microplate reader (Molecular Devices,”

In the case of “IHGTYKELLDTVTAP (Peptide 1) [SEQ ID NO: 1]”, the “cell survival rate of keratinocytes reduced by ultraviolet irradiation” value (HaCaT cells [1]) is reported as “restored”, the “expression of Col1a1” value (collagen type 1 (Col1a1)) is reported as “increased” and the expression of fibronectin (fibronectin) is reported as “increased”. For the same sequence, the expression of elastin (elastin) was “increased”, the proliferation of fibroblasts (NIH3T3 cells [2]) was “promoted” and the “level of reactive oxygen species in fibroblasts increased by ultraviolet irradiation” value (NIH3T3 cells [3]) was “reduced”. For the same sequence, the “expression of SIRT-1” value (sirtuin-1 (SIRT-1)) was “increased”, the “expression of AQP3” value (aquaporin-3 (AQP3)) was “increased” and the “cell survival rate of fibroblasts reduced by ultraviolet irradiation” value (NIH3T3 cells [4]) was “restored”. For the same sequence, the proliferation of keratinocytes (HaCaT cells [5]) was “promoted” and the “level of reactive oxygen species in keratinocytes increased by ultraviolet irradiation” value (HaCaT cells [6]) was “reduced”.
